Laboratory results published in article PMC3109749 (ACS medicinal chemistry letters, 2011).

What was measured:
[1] = target: T1, serine hydrolase superfamily (FAAH and other FP-reactive serine hydrolases) (Homo sapiens, UniProt O00519); assay type: biochemical; details: brain membrane proteome; at both 10 and 100 μM
T1 sequence (O00519 1-579): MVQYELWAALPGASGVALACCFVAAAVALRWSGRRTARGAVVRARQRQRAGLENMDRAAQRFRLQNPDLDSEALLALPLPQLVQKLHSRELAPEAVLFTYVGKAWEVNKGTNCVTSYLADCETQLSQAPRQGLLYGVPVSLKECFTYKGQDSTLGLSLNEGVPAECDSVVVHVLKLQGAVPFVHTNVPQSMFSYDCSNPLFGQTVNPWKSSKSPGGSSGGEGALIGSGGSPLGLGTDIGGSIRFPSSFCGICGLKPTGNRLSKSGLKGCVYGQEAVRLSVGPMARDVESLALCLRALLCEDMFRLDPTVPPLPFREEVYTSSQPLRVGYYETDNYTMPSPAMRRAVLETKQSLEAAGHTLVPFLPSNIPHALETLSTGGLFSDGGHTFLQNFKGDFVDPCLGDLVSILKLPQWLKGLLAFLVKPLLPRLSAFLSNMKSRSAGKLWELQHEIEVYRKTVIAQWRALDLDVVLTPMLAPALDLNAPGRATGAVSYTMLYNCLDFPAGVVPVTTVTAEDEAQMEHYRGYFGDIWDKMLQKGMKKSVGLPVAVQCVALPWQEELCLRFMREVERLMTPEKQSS

[2] = system: serine hydrolase superfamily (FAAH and other FP-reactive serine hydrolases); assay type: biochemical, human; details: for off targets in human membrane proteome (ABPP): brain membrane proteome, 10 and 100 μM
[3] = target: T2, serine hydrolase superfamily (FAAH and other FP-reactive serine hydrolases) (Mus musculus, UniProt O08914); assay type: biochemical; details: brain membrane proteome; at both 10 and 100 μM
T2 sequence (O08914 1-579): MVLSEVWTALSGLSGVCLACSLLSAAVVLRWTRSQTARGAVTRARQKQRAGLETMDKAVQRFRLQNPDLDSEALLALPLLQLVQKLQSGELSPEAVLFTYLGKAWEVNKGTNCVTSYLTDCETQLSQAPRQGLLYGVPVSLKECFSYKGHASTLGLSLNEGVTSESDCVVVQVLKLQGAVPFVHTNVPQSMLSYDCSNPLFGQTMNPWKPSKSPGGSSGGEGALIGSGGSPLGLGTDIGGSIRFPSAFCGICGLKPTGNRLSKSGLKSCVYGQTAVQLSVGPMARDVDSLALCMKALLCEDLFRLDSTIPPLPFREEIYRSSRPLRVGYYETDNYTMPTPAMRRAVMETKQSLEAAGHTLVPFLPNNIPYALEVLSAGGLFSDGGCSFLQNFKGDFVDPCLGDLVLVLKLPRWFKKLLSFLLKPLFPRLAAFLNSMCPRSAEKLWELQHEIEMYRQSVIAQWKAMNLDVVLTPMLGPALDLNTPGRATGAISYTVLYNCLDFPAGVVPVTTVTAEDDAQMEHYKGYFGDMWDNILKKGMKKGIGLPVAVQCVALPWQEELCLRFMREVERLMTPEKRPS

[4] = system: serine hydrolase superfamily (FAAH and other FP-reactive serine hydrolases); assay type: biochemical, mouse; details: for off targets in mouse membrane proteome (ABPP): brain membrane proteome, 10 and 100 μM
[5] = system: rat model of inflammatory pain (CFA); details: not shown in this paper's figure; cited from earlier work
human FAAH (hFAAH) = target: T3, human FAAH (hFAAH) (Homo sapiens, UniProt O00519); assay: enzyme-coupled human FAAH assay, kinact/Ki; assay type: biochemical
T3 sequence (O00519 32-579 limits assumed): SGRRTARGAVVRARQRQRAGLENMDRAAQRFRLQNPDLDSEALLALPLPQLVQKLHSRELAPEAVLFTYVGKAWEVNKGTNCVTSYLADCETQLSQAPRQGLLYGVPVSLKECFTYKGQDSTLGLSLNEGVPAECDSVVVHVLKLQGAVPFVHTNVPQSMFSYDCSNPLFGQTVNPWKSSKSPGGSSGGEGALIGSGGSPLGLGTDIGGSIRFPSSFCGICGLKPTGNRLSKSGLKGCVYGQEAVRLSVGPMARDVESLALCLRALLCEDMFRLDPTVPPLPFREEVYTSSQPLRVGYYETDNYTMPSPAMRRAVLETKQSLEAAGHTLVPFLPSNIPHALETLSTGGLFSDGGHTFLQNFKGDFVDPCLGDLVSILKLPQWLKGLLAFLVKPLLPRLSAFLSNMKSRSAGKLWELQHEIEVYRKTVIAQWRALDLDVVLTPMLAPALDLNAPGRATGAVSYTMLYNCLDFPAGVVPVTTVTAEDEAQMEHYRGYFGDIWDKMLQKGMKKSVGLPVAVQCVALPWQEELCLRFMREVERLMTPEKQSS

rat FAAH (rFAAH) = target: T4, rat FAAH (rFAAH) (Rattus norvegicus, UniProt P97612); assay: enzyme-coupled rat FAAH assay, kinact/Ki; assay type: biochemical
T4 sequence (P97612 1-579): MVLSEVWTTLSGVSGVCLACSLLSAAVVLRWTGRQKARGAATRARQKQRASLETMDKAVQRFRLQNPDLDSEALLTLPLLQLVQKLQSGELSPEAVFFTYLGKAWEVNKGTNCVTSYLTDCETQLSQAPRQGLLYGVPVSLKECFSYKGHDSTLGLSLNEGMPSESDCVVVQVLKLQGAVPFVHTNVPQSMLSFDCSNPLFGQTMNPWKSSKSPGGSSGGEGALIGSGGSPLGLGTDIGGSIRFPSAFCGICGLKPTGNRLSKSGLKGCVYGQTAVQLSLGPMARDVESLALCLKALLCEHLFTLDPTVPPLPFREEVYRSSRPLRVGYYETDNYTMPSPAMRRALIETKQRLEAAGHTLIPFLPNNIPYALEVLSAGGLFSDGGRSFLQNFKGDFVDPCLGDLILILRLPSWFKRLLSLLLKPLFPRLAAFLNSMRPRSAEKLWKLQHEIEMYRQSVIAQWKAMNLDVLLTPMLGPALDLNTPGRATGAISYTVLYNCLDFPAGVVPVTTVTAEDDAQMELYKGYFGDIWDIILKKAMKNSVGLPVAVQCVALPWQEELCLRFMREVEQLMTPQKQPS

FAAH = target: T5, FAAH (Rattus norvegicus, UniProt P97612); assay: in vivo FAAH activity accompanying efficacy; details: at efficacious doses starting at 0.1 mg/kg; with elevations in anandamide and other fatty acid amides in brain and plasma
T5 sequence (P97612 1-579): T4 sequence (P97612 1-579)

[6] = human liver microsomal stability and binding; assay type: in vitro ADME; details: predicted from in vitro experiments
[7] = soluble proteome of liver, up to 100 μM

In the case of `NC(=O)c1cccc(-c2cccc(OC(=O)NC3CCCCC3)c2)c1` [Compound 2], the “inhibition of FAAH in human membrane proteome (ABPP)” value [1] is reported as “completely inhibited FAAH”, the “off targets in human membrane proteome (ABPP)” value [2] is reported as “no off targets” and the “off targets among serine hydrolases in human soluble liver proteome (ABPP)” value [2, 7] is reported as “multiple off targets”. The “inhibition of FAAH in mouse membrane proteome (ABPP)” value [3] was “completely inhibited FAAH”, the “off targets in mouse membrane proteome (ABPP)” value [4] was “no off targets” and the “off targets among serine hydrolases in mouse soluble liver proteome (ABPP)” value [4, 7] was “multiple off targets”.

In the case of `O=C(Nc1cccnc1)N1CCC(Cc2cccc(Oc3ccc(C(F)(F)F)cn3)c2)CC1` [Compound 7], the “minimum effective dose (MED), mechanical allodynia” value [5] is listed as 3 mg/kg.

For `O=C(Nc1cccnc1)N1CCC(=Cc2cccc(Oc3ccc(C(F)(F)F)cn3)c2)CC1` [Compound 11], the “fold more potent (higher kinact/Ki) than 7 for hFAAH” value (human FAAH (hFAAH); compared to PF-3845 (7)) was “approximately 2 fold” and the “fold more potent (higher kinact/Ki) than 7 for rFAAH” value (rat FAAH (rFAAH); compared to PF-3845 (7)) was ~4 fold.

With `O=C(Nc1cccnc1)N1CCC/C(=C\c2cccc(Oc3ccc(C(F)(F)F)cn3)c2)C1` [Compound 16] the “fold less potent than 11 for hFAAH” value (human FAAH (hFAAH); compared to 11) was “approximately 19 fold”.

In the case of `O=C(Nc1cccnc1)N1CCC/C(=C/c2cccc(Oc3ccc(C(F)(F)F)cn3)c2)C1` [Compound 17], the “FAAH potency in words” value (human FAAH (hFAAH); relative to the parent analogue (9 vs 4, 10 vs 5, 12-17 vs 11)) is reported as “activity was almost completely abolished”.

For `O=C(Nc1cnccn1)N1CCC(=Cc2cccc(Oc3ccc(C(F)(F)F)cn3)c2)CC1` [Compound 22], the “fold higher kinact/Ki value for hFAAH as compared to 11” value (human FAAH (hFAAH); compared to 11) was 2 fold.

With `O=C(Nc1cccnn1)N1CCC(=Cc2cccc(Oc3ccc(C(F)(F)F)cn3)c2)CC1` [Compound 23] the “inhibition of FAAH in human membrane proteome (ABPP)” value [1] was “completely inhibited FAAH”, the “off targets in human membrane proteome (ABPP)” value [2] was “no off targets” and the “inhibition of FAAH activity in vivo” value (FAAH) was “near complete inhibition of FAAH activity”. The “inhibition of FAAH in mouse membrane proteome (ABPP)” value [3] was “completely inhibited FAAH”, the “off targets in mouse membrane proteome (ABPP)” value [4] was “no off targets” and the “predicted human blood clearance” value [6] was 0.6 mL/min/kg.

With `Cc1noc(NC(=O)N2CCC(=Cc3cccc(Oc4ccc(C(F)(F)F)cn4)c3)CC2)c1C` [Compound 24] the “fold less potent for hFAAH as compared to 23” value (from here on “fold less potent for hFAAH”) (human FAAH (hFAAH)) was 5 fold and the “fold more potent for rFAAH as compared to 23” value (rat FAAH (rFAAH); compared to 23) was 2 fold.

With `O=C(Nc1cccnn1)N1CCC(=Cc2cccc(Oc3ccc(C(F)(F)F)cc3)c2)CC1` [Compound 26] the “fold less potent for hFAAH” value (human FAAH (hFAAH)) was 2 fold.

With `O=C(Nc1cccnn1)N1CCC(=Cc2cccc(Oc3ccccc3)c2)CC1` [Compound 27] the “additional fold loss in potency on removal of the trifluoromethyl substituent” value (human FAAH (hFAAH); compared to 26) was 10 fold.

With `O=C(Nc1cccnn1)N1CCC(=Cc2cccc(Oc3ccc(C(F)(F)F)nc3)c2)CC1` [Compound 28] the “fold less potent for hFAAH” value (human FAAH (hFAAH)) was ≤ 2 fold.
